Like-named read-outs stand apart in the source and are kept apart here. Residues, ends and D or L forms follow the SMILES beside them. Groups on a side chain read outwards from the residue. *: point of attachment. Glutaryl(5-(14-O-Dox)) = COc1cccc2c1C(=O)c1c(O)c3c(c(O)c1C2=O)C[C@@](O)(C(=O)COC(=O)CCCC(=O)*)C[C@@H]3O[C@H]1C[C@H](N)[C@H](O)[C@H](C)O1; βAla = NCCC(=O)O
Key:
[1] = tested on: MCF-7 cells; assay: MTS cytotoxicity assay of [(WR)8WKβA]-Dox, MCF-7; type: cell-based
Experimental: (§1) Cytotoxic activity of the synthesized conjugate and noncovalent mixtures of cyclic [WR]9+Dox was determined in SK-OV-3, MDA-MB-231, MCF-7, MES-SA/MX2, and H9C2 cells. […] An appropriate growth medium was used for each cell line (for SK-OV-3: McCoy's […] with L-glutamine containing fetal bovine serum (FBS) (10%) and penicillin or streptomycin (1%); for MDA-MB-231 and MCF-7 cells: DMEM/F12 (1:1) (1×) with L-Glutamine and 15 mM HEPES containing FBS (10%) and penicillin or streptomycin (1%), and for MES-SA/MX2 and H9C2 cells: Minimum Essential Medium Eagle with Earle's salts and sodium bicarbonate, without L-glutamine containing FBS (10%), and penicillin or streptomycin (1%)). The cells were seeded in a complete growth medium 24 h prior to the experiment. […] The incubation was continued for 3 h.

[2] = tested on: MES-SA/MX2 cells; assay: MTS cytotoxicity assay of [(WR)8WKβA]-Dox, MES-SA/MX2; settings: MES-SA/MX2; for reduction in cell viability: 24 h
Experimental: as §1

[3] = tested on: H9C2 myocardium cells; settings: 24 h
Experimental: as §1

[4] = tested on: H9C2 cells; assay: Confocal microscopy uptake in H9C2 (Example 2); type: cell-based, rat; settings: 5 μM, 24 h
Experimental: Confocal Microscopy. MDA-MB-231, SK-OV-3, MES-SA/MX2, and H9C2 cells (7×10^4 cells/well) were seeded with a medium on a coverslip 24 h prior to the experiment in six well plates. After 24 h, the medium was changed with opti-MEM. The cells were treated with Dox and peptide-Dox conjugate (5 μM) in opti-MEM for 24 h. After 24 h incubation, the media were removed, and cells were washed three times with PBS in each well. Then, the cells were fixed with 3.7% formaldehyde for 10 min, followed by washing three times with PBS (pH 7.6) for 5 min. DAPI (40 μL) for staining the nuclei was placed on a microscope slide, and it was covered with the coverslip with the cell-attached side facing down. The slides were left standing horizontally in a dark place with airflow to allow faster drying. The cells were photographed using Nikon Instruments A1 Confocal Laser Microscope Series and NIS-Elements software (AR 4.30.02, 64 bit). The scan mode was selected as Galvano. The magnification and resolution were set at 40× and 1024, respectively.

[5] = tested on: MDA-MB-231 cells; assay: Differential extraction of Dox in nuclear and cytoplasmic compartments (HPLC); type: cell-based; settings: 50 μM; 4 h exposure
Experimental: Differential Extraction of Dox in Nuclear and Cytoplasmic Compartments. In order to confirm nuclear delivery of peptide-conjugated Dox, in addition to confocal microscopy, a differential nuclear and cytoplasmic extraction was performed. […] The cells were then pelleted at 2000 rpm for 5 min. After removing the supernatant, the cells were resuspended in Dounce buffer containing protease inhibitors. The cell suspension to be used was incubated on ice for 15 min before being spiked with cold 10% NP-40 and vortexed for 10 s. The suspension was centrifuged at 10,000 rpm for 10 min at 4° C. to pellet the nuclei. The supernatant was isolated for cytoplasmic extraction. The nuclear pellet was washed in cold PBS twice and centrifuged to remove the supernatant. The isolated nuclei were then lysed using RIPA buffer containing protease inhibitors. The nuclear and cytoplasmic extractions were analyzed by analytical HPLC to differentially quantify free Dox (or Dox released from the conjugates) and peptide-conjugate Dox using an Agilent Zorbax SB-C18 (4.6×150 mm) column. The column was equilibrated with 0.1% TFA-water (solvent A). The elution was performed at a flow rate of 1 mL/min using a gradient of acetonitrile from 0 to 35% in 50 min, with the absorbance measured at 490 nm.

[6] = tested on: MDA-MB-231 cells; assay: FACS cellular uptake with endocytosis inhibitors, MDA-MB-231; type: cell-based; settings: 5 μM, 3 h
Experimental: Fluorescence-Activated Cell Sorter (FACS) Analysis of Cellular Uptake in the Presence of Endocytosis Inhibitors. A flow cytometry study was conducted in the presence of endocytosis inhibitors such as nystatin, chlorpromazine, chloroquine, and methyl β-cyclodextrin to determine whether the cellular uptake for the peptide-Dox was endocytosis-dependent. MDA-MB-231 (5×10^5 cells/well) were seeded in the medium 24 h prior to the experiment in six well plates, and after 24 h the medium was changed with Opti-MEM. […] After 3 h incubation, the media containing the compounds were removed. Next, the cells were digested with 0.05% trypsin/EDTA (0.53 mM) for 5 min to remove any artificial surface binding, centrifuged at 2500 RPM for 5 min, and then collected as the precipitant. Then the cells were washed two times with PBS, resuspended in flow cytometry buffer, and transferred to the flow cytometry tubes through the 35 μm Strainer Mesh cap. Finally, the cells were analyzed by flow cytometry (FACSCalibur Becton Dickinson) using the propidium iodide channel and CellQuest software. The data presented were based on the mean fluorescence intensity for 10,000 cells collected. All assays were performed in triplicate.

[7] = tested on: MES-SA/MX2 cells; assay: FACS cellular uptake with endocytosis inhibitors, MES-SA/MX2; type: cell-based; settings: 5 μM, 3 h
[8] = tested on: CCRF-CEM cells; settings: 5 μM
Experimental: Intracellular Hydrolysis. […] Cells were grown with serum-free RPMI medium in 75 cm^2 culture flasks to approximately 70-80% confluence (1.37×10^7 cells/mL). […] Then the cells were incubated at 37° C. After 4 h, the medium containing the conjugate was aspirated, and cells were washed three times with PBS before adding a fresh serum-free medium. The cells were first partitioned/transferred to culture plates (six wells) contained 1.37×10^7 cells per well in 5 mL of medium, then incubated for the indicated time. After incubation, the cells were collected using centrifugation. After centrifugation, the medium was removed by decantation. The cell pellets were washed with ice-cold PBS to remove any remaining medium. The cell pellets were then completely extracted with an equal volume of methanol, chloroform, and isopropanol mixture (4:3:1 v/v/v) and finally filtered through 0.2 μm filters.

[9] = in vitro; settings: human, 25% human serum
Experimental: Human serum (250 μL) was diluted by adding sterile water (650 μL) and conjugate stock solution (100 μL) to give a sample with 25% human serum and 5 μM conjugate. The sample was kept at 37° C. in an incubator to mimic human body temperature. At regular time intervals, aliquots (100 μL) were taken and diluted with methanol (200 μL). After centrifugation (7000 RPM) of the mixture for 10 min, the supernatant was analyzed by analytical HPLC at 495 nm, and the major HPLC peaks were analyzed by mass spectrometry. The mobile phase used was acetonitrile/water with 0.1% TFA, with a gradient of 20-45% and a flow rate of 1 mL/min in 50 min. The percentage of intact conjugate and the release of the free drug were plotted against incubation time. The AUC obtained after each run was used to confirm the conjugate's degradation, and t1/2 (the time needed to hydrolyze half of the initial conjugate in human serum) was calculated from the graph plotted as AUC versus incubation time.

COc1cccc2c1C(=O)c1c(O)c3c(c(O)c1C2=O)C[C@@](O)(C(=O)COC(=O)CCCC(=O)NCCC(=O)NCCCC[C@@H]1NC(=O)[C@H](Cc2c[nH]c4ccccc24)NC(=O)[C@H](CCCNC(=N)N)NC(=O)[C@H](Cc2c[nH]c4ccccc24)NC(=O)[C@H](CCCNC(=N)N)NC(=O)[C@H](Cc2c[nH]c4ccccc24)NC(=O)[C@H](CCCNC(=N)N)NC(=O)[C@H](Cc2c[nH]c4ccccc24)NC(=O)[C@H](CCCNC(=N)N)NC(=O)[C@H](Cc2c[nH]c4ccccc24)NC(=O)[C@H](CCCNC(=N)N)NC(=O)[C@H](Cc2c[nH]c4ccccc24)NC(=O)[C@H](CCCNC(=N)N)NC(=O)[C@H](Cc2c[nH]c4ccccc24)NC(=O)[C@H](CCCNC(=N)N)NC(=O)[C@H](Cc2c[nH]c4ccccc24)NC(=O)[C@H](CCCNC(=N)N)NC(=O)[C@H](Cc2c[nH]c4ccccc24)NC1=O)C[C@@H]3O[C@H]1C[C@H](N)[C@H](O)[C@H](C)O1 [[(WR)8WKβA]-Dox] (cyclo(K([βAla-Glutaryl(5-(14-O-Dox))])WRWRWRWRWRWRWRWRW))
reduction of cell proliferation ([1]; 1 μM, 24 h): 28% | reduction of cell proliferation ([1]; 1 μM, 72 h): 70% | reduction of cell proliferation ([1]; 5 μM, 24 h): 55% | reduction of cell proliferation ([1]; 5 μM, 72 h): 77% | reduction of cell proliferation ([1]; 10 μM, 24 h): 56% | reduction of cell proliferation ([1]; 10 μM, 72 h): 77% | reduction in cell viability ([2]; 1 μM): 64% | reduction in cell viability ([2]; 5 μM): 50% | Dox-resistant cell survival / viability ([2]; 5 μM, 72 h): 8% | reduction in cell viability ([2]; 10 μM): 39% | cytotoxicity ([3]; 1 μM and 5 μM): no significant cytotoxicity | cytotoxicity ([3]; 10 μM): comparable to Dox | uptake in heart cells (confocal microscopy, words) [4]: did not show any significant uptake | total concentration of Dox (conjugated and released) in the nucleus [5]: higher than free Dox | cellular uptake in presence of nystatin and chloroquine [6]: not reduced significantly | cellular uptake in presence of nystatin and chloroquine [7]: not reduced significantly | free Dox released intracellularly ([8]; within 12 h): More than 36% | free Dox released intracellularly ([8]; within 72 h): Approximately 100% | half-life at 5 μM [9]: ~6 h | remaining at 3 h, 5 μM [9]: 80%

From patent US12070505B2, “Targeted peptide-drug conjugates” (priority 2021, dated 2024)
